Results from the supplement of paper PMC9386025.

How the values were obtained:
Experiment in all cases: drug sensitivity score (DSS) (DSS (dimensionless)); higher = more sensitive (stronger drug response)
[1] = tested on: FIMM-PDC1 (patient-derived ovarian cancer cells); details: genetic perturbation: none (patient-derived cell culture)
Summary of the method: (§1)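 Ovarian cancer cell lines, after at least three days of shRNA induction with 100 ng/ml doxycycline, and patient-derived cultures were plated at 1 000 – 1 500 cells per well into 384-well plates pre-loaded with drugs at five concentrations spanning a 10,000-fold range. Plates were then kept for three days at 37 °C and 5.0 % CO2. Viability was measured as CellTiter-Glo luminescence on a PHERAstar FS, and each drug's dose-response curve was reduced to a drug sensitivity score computed by a previously described method.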

[2] = tested on: FIMM-PDC3 (patient-derived ovarian cancer cells); details: genetic perturbation: none (patient-derived cell culture)
Summary of the method: as §1

[3] = tested on: FIMM-PDC4 (patient-derived ovarian cancer cells); details: genetic perturbation: none (patient-derived cell culture)
Summary of the method: as §1

[4] = tested on: FIMM-PDC5 (patient-derived ovarian cancer cells); details: genetic perturbation: none (patient-derived cell culture)
Summary of the method: as §1

[5] = tested on: FIMM-PDC6 (patient-derived ovarian cancer cells); details: genetic perturbation: none (patient-derived cell culture)
Summary of the method: as §1

[6] = tested on: FIMM-PDC7 (patient-derived ovarian cancer cells); details: genetic perturbation: none (patient-derived cell culture)
Summary of the method: as §1

[7] = tested on: JHOS2
Summary of the method: as §1

[8] = tested on: Kuramochi
Summary of the method: as §1

[9] = tested on: OVSAHO
Summary of the method: as §1

[10] = genetic perturbation: DOX-induced PTK7 shRNA knockdown
[11] = genetic perturbation: DOX-induced control shRNA

Row | SMILES | drug sensitivity score [1] | drug sensitivity score [2] | drug sensitivity score [3] | drug sensitivity score [4] | drug sensitivity score [5] | drug sensitivity score [6] | drug sensitivity score [7, 10] | drug sensitivity score [7, 11] | drug sensitivity score [8, 10] | drug sensitivity score [8, 11] | drug sensitivity score [9, 10] | drug sensitivity score [9, 11]
1 | COc1cc(C(=O)O)ccc1NC(=O)[C@@H]1N[C@@H](CC(C)(C)C)[C@](C#N)(c2ccc(Cl)cc2F)[C@H]1c1cccc(Cl)c1F [Idasanutlin] | 0.5 | 5.2 | 5 | 22.5 | 15.6 | 15.7 | < 0 | < 0 | 0.95 | < 0 | 1.1 | < 0
2 | C=CC(=O)N1CCC[C@@H](n2nc(-c3ccc(Oc4ccccc4)cc3)c3c(N)ncnc32)C1 [Ibrutinib] | 0.35 | 5.6 | 7.7 | 10.1 | 6.4 | 2.5 | 0.6 | < 0 | 2.2 | 1.1 | 2.9 | 2.6
3 | CCS(=O)(=O)c1cccc(-c2cc(C(=O)NC3CCN(C)CC3)c(C)c3[nH]c4ncc(C)cc4c23)c1 [TAK-901] | 4.85 | 4.3 | 7.9 | 6.5 | 7.3 | 3 | 3.2 | 5.3 | 7.3 | 6.4 | 8.3 | 5.7
4 | CO[C@@H](C(=O)N1Cc2[nH]nc(NC(=O)c3ccc(N4CCN(C)CC4)cc3)c2C1)c1ccccc1 [Danusertib] | 7.7 | 9.9 | 11.6 | 9.6 | 9.4 | 1.8 | 6.6 | 5.5 | 10.4 | 13 | 17.5 | 7.5
5 | CC(=O)Nc1cccc(-n2c(=O)n(C3CC3)c(=O)c3c(Nc4ccc(I)cc4F)n(C)c(=O)c(C)c32)c1 [Trametinib] | 0.75 | 4.8 | 13 | 17.2 | 10.3 | 9 | 1.6 | 12.5 | 8.9 | 4.5 | 10.6 | 7.3
6 | O=C1CN2Cc3c(ccc(Cl)c3Cl)N=C2N1 [Anagrelide] | < 0 | 2.5 | 0.8 | < 0 | 3.5 | 12 | < 0 | 3.5 | < 0 | < 0 | < 0 | < 0
7 | CN1CCN(c2cc(C(=O)Nc3ccc4c(c3)-c3c(c(C(N)=O)nn3-c3ccc(F)cc3)CC4)c(Cl)cn2)CC1 [PHA 408] | < 0 | 4.7 | 2.7 | 3.8 | 4.8 | 2.8 | 8.3 | < 0 | 2.75 | 2.3 | 7.3 | 2.8
8 | CNC(=O)c1ccccc1Nc1nc(Nc2ccc3c(c2OC)CCC[C@H](N2CCN(CCO)CC2)C3)ncc1Cl | 7.5 | 6.9 | 9.6 | 10.2 | 5.3 | 5.5 | 7.1 | 5.6 | 7.7 | 6.3 | 12.4 | 7.5
9 | Nc1cc(F)ccc1NC(=O)c1ccc(CNC(=O)/C=C/c2cccnc2)cc1 [Tucidinostat] | 5.9 | 7.7 | 3.5 | 7.3 | 6.3 | 7.4 | 2 | 2.1 | 6.65 | 1.5 | 6.5 | 2.1
10 | CN1CCN(CCOc2cc(OC3CCOCC3)c3c(Nc4c(Cl)ccc5c4OCO5)ncnc3c2)CC1 [Saracatinib] | 4.6 | 12 | 13.7 | 15.2 | 9.4 | 5.8 | 1.4 | 7.3 | 10.6 | 5.2 | 12.4 | 6.6
11 | CCN(CC)CCNC(=O)c1c(C)[nH]c(/C=C2\C(=O)Nc3ccc(-c4csc(-c5ccccc5)n4)cc32)c1C [Amcasertib] | < 0 | 2.6 | < 0 | 0.3 | < 0 | 5.3 | 8.4 | < 0 | 4.6 | < 0 | 1.6 | 0.8
12 | Cc1cc(-c2nc(-c3ccc(OC(F)(F)F)cc3)no2)nn1Cc1ccnc(N2CCN(C3CC3)CC2)c1 [BAY 87-2243] | < 0 | 0.9 | 1.5 | < 0 | 8.3 | < 0 | 1.3 | < 0 | 5.7 | < 0 | < 0 | 3.5
13 | CC(C)Oc1ccc(C(=O)N[C@H](CNC(=O)CN(C)C)Cc2ccc(-c3cn4cccc([C@H](C)O)c4n3)cc2)cc1Cl | 12.7 | 11.9 | 6 | 14.9 | 0.2 | 4.2 | 8.9 | 6.4 | 15.1 | 2.5 | 7.7 | 9.5
14 | Cc1ccc(NS(=O)(=O)c2cccc(C#N)c2)c2[nH]cc(C#N)c12 [E7820] | 2.9 | 18.3 | 3 | 6.4 | 5.9 | 12.2 | 9.6 | 9.5 | 2.4 | 1.5 | 3 | 1.1
15 | CC(C)C[C@H](NC(=O)[C@H](Cc1ccccc1)NC(=O)c1cnccn1)B(O)O [Bortezomib] | 29.1 | 30.6 | 28.8 | 27.4 | 31.8 | 31.9 | 25.7 | 23.6 | 16.3 | 20.1 | 24.2 | 11.6
16 | CO[C@@H](C)Cn1c(=O)n(C)c2cnc3ccc(-c4cncc(C(C)(C)O)c4)cc3c21 | 6.85 | 6.9 | 12 | 16.8 | 12.6 | 11.6 | 7.2 | 8.5 | 8.4 | 8.4 | 11.3 | 8
17 | Cc1c(-c2ccc(N3CCc4cccc(C(=O)Nc5nc6ccccc6s5)c4C3)nc2C(=O)O)cnn1CC12CC3CC(CC(C3)C1)C2 | 7.4 | 9.6 | 1.2 | 13.9 | 24.8 | 7.6 | 2.4 | < 0 | 1.25 | 3.3 | 19.8 | < 0

Row | SMILES | drug sensitivity score [1] | drug sensitivity score [2] | drug sensitivity score [3] | drug sensitivity score [4] | drug sensitivity score [5] | drug sensitivity score [6] | drug sensitivity score [7, 10] | drug sensitivity score [7, 11] | drug sensitivity score [8, 10] | drug sensitivity score [8, 11] | drug sensitivity score [9, 10] | drug sensitivity score [9, 11]
18 | CN(C)c1cc2c(cc1Sc1nc3c(N)nccc3n1CCNCC(C)(C)C)OCO2 [CUDC-305] | 11.5 | 9.8 | 15.8 | 12.8 | 11.6 | 12.7 | 11.5 | 9.9 | 7.3 | 0.8 | < 0 | 6.3
19 | CC[C@@H](C(=O)[C@@H](C)[C@@H](O)[C@H](C)[C@@H]1O[C@@H]([C@@H](CC)C(=O)O)CC[C@@H]1C)[C@H]1O[C@]2(C=C[C@@H](O)[C@]3(CC[C@@](C)([C@H]4CC[C@](O)(CC)[C@H](C)O4)O3)O2)[C@H](C)C[C@@H]1C [Salinomycin] | 11.6 | 18.8 | 16.8 | 18.4 | 8.1 | 14.7 | 24.2 | 15.5 | 19.4 | 21.6 | 29.2 | 4.8
20 | Cc1sc2c(c1C)C(c1ccc(Cl)cc1)=N[C@@H](CC(=O)Nc1ccc(OCCOCCOCCOCCNc3cccc4c3C(=O)N(C3CCC(=O)NC3=O)C4=O)cc1)c1nnc(C)n1-2 (stereo partly specified) [ARV-825] | 0.6 | 3.2 | 8.2 | 8.9 | 6.7 | 8.7 | 10.2 | 8.1 | 8.3 | 10.5 | 9.7 | 9.1
21 | S=c1[nH]cnc2nc[nH]c12 [Mercaptopurine] | 3.75 | < 0 | < 0 | 2 | < 0 | < 0 | 0.1 | < 0 | 6.45 | 6.8 | 0.9 | 7.3
22 | O=C(NC1CCNCC1)c1n[nH]cc1NC(=O)c1c(Cl)cccc1Cl [AT7519] | 14.1 | 13.6 | 16.3 | 20.5 | 20.5 | 18.2 | 14 | 14 | 15 | 7.7 | 17.2 | 14.5
23 | CCCCCCCCCCCCCCCCOP(=O)([O-])OCC[N+](C)(C)C [Miltefosine] | 2.55 | 5.7 | 6.6 | 10.6 | 10.2 | 8.1 | 13 | 5.2 | 4.9 | 4.9 | 5.9 | 3.6
24 | CS(=O)(=O)N1CCN(Cc2cc3nc(-c4cccc5[nH]ncc45)nc(N4CCOCC4)c3s2)CC1 [Pictilisib] | 8.15 | 8.3 | 15.1 | 16.5 | 11.5 | 12.1 | 5.9 | 9 | 14 | 7.2 | 11.7 | 14.1
25 | Cc1cc(Nc2cc(N3CCN(C)CC3)nc(/C=C/c3ccccc3)n2)n[nH]1 [ENMD-2076] | 6 | 8.6 | 10.5 | 12.4 | 3.4 | 4.2 | 8.3 | 9.4 | 9.65 | 8.1 | 11.5 | 7.9
26 | CC(=O)OC[C@H]1O[C@@H]([S-])[C@H](OC(C)=O)[C@@H](OC(C)=O)[C@@H]1OC(C)=O.CCP(CC)CC.[Au+] [Auranofin] | 1.9 | 5.5 | 1.2 | 1.1 | 4 | 2.2 | 2.5 | 0.7 | 6.75 | 7.5 | 11 | 5.6
27 | Cc1[nH]c2ccccc2c1CCNCc1ccc(/C=C/C(=O)NO)cc1 [Panobinostat] | 11 | 13.7 | 8.1 | 15 | 12.4 | 8.2 | 13 | 13.6 | 19 | 7.2 | 13.5 | 11.2
28 | CC/C(=C(\c1ccc(O)cc1)c1ccc(OCCN(C)C)cc1)c1ccccc1 [4-hydroxytamoxifen] | 3.6 | 6 | 6 | 6 | 3 | 4.6 | 8.4 | 2.3 | 5.1 | 2.4 | 4.9 | 3.2
29 | CC1(C)CCC(c2ccc(Cl)cc2)=C(CN2CCN(c3ccc(C(=O)NS(=O)(=O)c4ccc(N[C@H](CCN5CCOCC5)CSc5ccccc5)c(S(=O)(=O)C(F)(F)F)c4)cc3)CC2)C1 [Navitoclax] | 4.85 | 5.7 | 6.2 | 19.5 | 21.9 | 16.4 | 1.1 | < 0 | 1.8 | 4.3 | 10.1 | < 0
30 | O=C(Nc1ccc2[nH]nc(-c3ccncc3)c2c1)[C@@H]1CCN(CC(=O)N2CCN(c3ccc(-c4ncccn4)cc3)CC2)C1 | 0.35 | 7.4 | 18.4 | 22 | 16.7 | 10.2 | 4.1 | 12.8 | 12.6 | 8 | 13.4 | 8.5
31 | CCc1cncnc1N1CCN(Cc2nc3ccc(C(F)(F)F)cc3[nH]2)CC1 | 1.9 | 0.5 | 3.2 | 2.9 | 8.9 | 4.3 | 0.1 | 0.7 | 2.3 | 0.8 | 1.2 | 2
32 | Cc1nc(=O)c2cc(CN(C)c3ccc(C(=O)N[C@@H](CCC(=O)O)C(=O)O)s3)ccc2[nH]1 [Raltitrexed] | 2.7 | < 0 | < 0 | < 0 | 1.2 | 3 | 0.1 | < 0 | 0.45 | 9.4 | < 0 | 5.1
33 | CN(CC(=O)N(Cc1ccc(C2CCCCC2)cc1)c1ccc(C(=O)O)cc1)S(=O)(=O)c1c(F)c(F)c(F)c(F)c1F [SH-4-54] | 4 | 6 | 7 | 5.1 | 7.6 | 9.2 | 4.6 | 3.7 | 6.1 | 4.7 | 5.2 | 5.4
